Experimental data as given in BindingDB's records for doi:10.3109/14756366.2011.590804 (University of Karachi, 2012).

Target: Beta-glucuronidase (Escherichia coli (strain K12), UniProt P05804)
Experiment: β-Glucuronidase Inhibition Assay
Conditions: pH 7; 37 °C
Experimental: β-Glucuronidase inhibitory activity was evaluated by a biochemical assay, based on the measurement of the absorbance of p-nitrophenol at 405 nm, produced from the enzymatic hydrolysis of chromogenic substrate [Choudhary et al., Steroids, 74:1040-1044; Khan et al., Chem. Pharm. Bull., 50:1443-1446]. The reaction mixture, consisting of 5 μL of test compound solution, 185 μL of 0.1 M acetate buffer (pH 7.0) and 10 μL β-glucuronidase solution, was kept for 30 min at 37°C. The total reaction volume being 250 μL. 50 μL of p-nitrophenyl-β-D-glucuronide was added to each plate. A multiplate reader was used to read the absorbance at 405 nm.

Chain of Beta-glucuronidase (P05804 whole entry): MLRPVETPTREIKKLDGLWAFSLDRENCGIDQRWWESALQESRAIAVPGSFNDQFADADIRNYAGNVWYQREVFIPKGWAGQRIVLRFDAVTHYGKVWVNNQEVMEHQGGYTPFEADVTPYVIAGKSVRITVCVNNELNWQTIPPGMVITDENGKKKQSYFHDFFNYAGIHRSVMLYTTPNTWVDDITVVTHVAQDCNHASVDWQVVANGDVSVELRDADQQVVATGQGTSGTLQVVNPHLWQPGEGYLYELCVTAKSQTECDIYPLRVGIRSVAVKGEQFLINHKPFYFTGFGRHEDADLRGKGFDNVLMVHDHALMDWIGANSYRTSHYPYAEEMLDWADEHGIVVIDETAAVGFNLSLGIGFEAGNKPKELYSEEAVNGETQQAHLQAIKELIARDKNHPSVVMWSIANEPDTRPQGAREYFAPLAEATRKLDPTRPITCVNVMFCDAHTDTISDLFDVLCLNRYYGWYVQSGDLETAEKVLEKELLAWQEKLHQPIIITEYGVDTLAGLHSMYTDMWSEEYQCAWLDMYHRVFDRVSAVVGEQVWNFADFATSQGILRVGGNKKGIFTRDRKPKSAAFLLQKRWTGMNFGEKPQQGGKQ

| SMILES | IC50 [µM] |
| --- | --- |
| C[C@]12CCC(=O)C=C1CC[C@@H]1[C@@H]2CC[C@]2(C)C(=O)CC[C@@H]12 [Androst-4-en-3,17-dione, 2] | 430 |
| C[C@]12CC[C@H]3[C@@H]([C@@H](O)CC4=C[C@@H](O)CC[C@@]43C)[C@@H]1CC[C@@H]2O [Androst-4-ene-3β,7β,17β-triol (8)] | 191 |
| C[C@]12CC[C@H](O)C=C1C(=O)C[C@@H]1[C@@H]2CC[C@]2(C)C(=O)CC[C@@H]12 [Androst-4-ene-3β-ol-6,17-dione (7)] | 222 |
| C[C@]12CCC(=O)CC1CC[C@@H]1[C@@H]2CC[C@]2(C)C(=O)CC[C@@H]12 (some centres undefined) [Androstane-3,17-dione (2)] | 374 |
